Assay results reported in patent publication US7964531B2, “3-phenoxy-4-pyridazinol derivatives and herbicidal composition containing the same” (Mitsui Chemicals Agro, Inc., priority 2001, dated 2011).

Key:
Format in all cases: in vivo
Cyperus esculentus L. [1] = experiment: Test Example 5: herbicidal effects, upland (soil treatment); settings: after 21 days
Procedure: (§1) Upland soil was filled in 150 cm^2 pot, and seeds of barnyardgrass, Cyperus esculentus L., velvetleaf, black nightshade, tall morningglory and corn were sowed, and grown in a greenhouse. At the next day of seeding, a predetermined chemical dosage of the wettable powder prepared in accordance with Preparation example 5 was diluted with water and applied to soil surface. After 21 days from the treatment, herbicidal effects and crop injury against corn were judged according to the following judgment standard, and the results were shown in Tables 6 to 8.
(§2) Judgment Standard • 0: Growth inhibition rate; 0 to 9% • 1: Growth inhibition rate; 10 to 19% • 2: Growth inhibition rate; 20 to 29% • 3: Growth inhibition rate; 30 to 39% • 4: Growth inhibition rate; 40 to 49% • 5: Growth inhibition rate; 50 to 59% • 6: Growth inhibition rate; 60 to 69% • 7: Growth inhibition rate; 70 to 79% • 8: Growth inhibition rate; 80 to 89% • 9: Growth inhibition rate; 90 to 98% • 10: Growth inhibition rate; 99 to 100%.

barnyardgrass [2] = experiment: as above; settings: after 21 days
Procedure: as §1, §2

black nightshade [3] = experiment: as above; settings: after 21 days
Procedure: as §1, §2

tall morningglory [4] = experiment: as above; settings: after 21 days
Procedure: as §1, §2

velvetleaf [5] = experiment: as above; settings: after 21 days
Procedure: as §1, §2

corn [6] = experiment: Test Example 5: crop injury against corn (soil treatment); settings: after 21 days
Procedure: as §1, §2

Cyperus esculentus L. [7] = experiment: Test Example 6: herbicidal effects, upland (foliar treatment); settings: after 14 days
Excerpt: as §2
(§3) Upland soil was filled in 150 cm^2 pot, and seeds of barnyardgrass, Cyperus esculentus L., velvetleaf, black nightshade, tall morningglory and corn were sowed, and grown in a greenhouse. After the weeds were grown with 10 to 15 cm or so, a predetermined chemical dosage of the wettable powder prepared in accordance with Preparation example 5 was diluted with water containing 0.05% of GRAMIN S and applied as a foliar treatment. After 14 days from the treatment, herbicidal effects and crop injury were judged in accordance with the judgment standard of Test example 5, and the results were shown in Tables 9 and 10. Incidentally, “-” in the table means no effective ingredient was contained.

barnyardgrass [8] = experiment: as above; settings: after 14 days
Excerpt: as §2, §3

black nightshade [9] = experiment: as above; settings: after 14 days
Excerpt: as §2, §3

tall morningglory [10] = experiment: as above; settings: after 14 days
Excerpt: as §2, §3

velvetleaf [11] = experiment: as above; settings: after 14 days
Excerpt: as §2, §3

corn [12] = experiment: Test Example 6: crop injury against corn (foliar treatment); settings: after 14 days
Excerpt: as §2, §3

Cyperus serotinus = experiment: Test Example 1: herbicidal effects, paddy-field pot test; settings: wettable powder applied 3 days after transplanting, judged after 25 days
How it was run: (§4)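 Paddy soil pots sown with dormancy-broken weed seeds mixed into the top 1 cm, plus germinated Cyperus serotinus tubers and transplanted 2.2-leaf rice seedlings, grown flooded in a greenhouse. Water-diluted wettable powder applied 3 days after transplanting; growth inhibition scored 25 days later on a 0–5 scale (0 = 0–10%, 5 = 91–100%).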

Scirpus joncoides = experiment: as above; settings: wettable powder applied 3 days after transplanting, judged after 25 days
How it was run: as §4

[13] = system: annual broad-leaved weeds (Lindernia spp., Rotala indica); experiment: as above; settings: wettable powder applied 3 days after transplanting, judged after 25 days
How it was run: as §4

[14] = system: barnyardgrass (Echinochloa oryzicola Vasing.); experiment: as above; settings: wettable powder applied 3 days after transplanting, judged after 25 days
How it was run: as §4

[15] = system: transplanted paddy-field rice; experiment: Test Example 1: crop injury against transplanted paddy-field rice; settings: wettable powder applied 3 days after transplanting, judged after 25 days
How it was run: as §4

barnyardgrass [16] = experiment: Test Example 2: herbicidal effects (soil treatment); settings: dosage 5 kg/a; soil treatment the day after seeding; judged after 21 days
Excerpt: (§5) Judgment Standard • 0: Growth inhibition rate; 0 to 10% • 1: Growth inhibition rate; 11 to 30% • 2: Growth inhibition rate; 31 to 50% • 3: Growth inhibition rate; 51 to 70% • 4: Growth inhibition rate; 71 to 90% • 5: Growth inhibition rate; 91 to 100%.
(§6) Upland soil was filled in 150 cm^2 pot, and seeds of barnyardgrass and indian mustard (Brassica juncea (L.) Czern. et Coss) were sowed, and grown in a greenhouse. At the next day of seeding, a predetermined chemical dosage of the wettable powder prepared in accordance with Preparation example 1 was diluted in water and applied to soil surface. After 21 days from the treatment, herbicidal effects were judged in accordance with the judgment standard of Test example 1, and the results were shown in Table 3.

[17] = system: indian mustard (Brassica juncea (L.) Czern. et Coss); experiment: as above; settings: dosage 5 kg/a; soil treatment the day after seeding; judged after 21 days
Excerpt: as §5, §6

indian mustard = experiment: Test Example 3: herbicidal effects (foliar treatment); settings: chemical dosage 0.5 kg/a; foliar treatment at 10 to 15 cm; judged after 14 days
Procedure: as §5
(§7) Upland soil was filled in 150 cm^2 pot, and seeds of velvetleaf, tall morningglory, indian mustard, black nightshade redroot pigweed were sowed, and grown in a greenhouse. After the weeds were grown with 10 to 15 cm or so, a predetermined chemical dosage of the wettable powder prepared in accordance with Preparation example 1 was diluted with water containing 0.05% of GRAMIN-S and applied as a foliar treatment. After 14 days from the treatment, herbicidal effects were judged in accordance with the judgment standard of Test example 1, and the results were shown in Table 4. Incidentally, “-” in the table means no test was carried out.

redroot pigweed = experiment: as above; settings: chemical dosage 0.5 kg/a; foliar treatment at 10 to 15 cm; judged after 14 days
Procedure: as §5, §7

tall morningglory [18] = experiment: as above; settings: chemical dosage 0.5 kg/a; foliar treatment at 10 to 15 cm; judged after 14 days
Procedure: as §5, §7

CS(=O)(=O)c1ccc(C(=O)C2C(=O)CCCC2=O)c(Cl)c1 [Compound E, 2-(2-chloro-4-mesylbenzoyl)cyclohexan-1,3-dione]
10 (Growth inhibition rate; 99 to 100%): Herbicidal effects Barnyard grass (barnyardgrass [2]; E alone 200 g/ha) | Herbicidal effects Tall Morningglory (tall morningglory [4]; E alone 200 g/ha) | Herbicidal effects Velvetleaf (velvetleaf [5]; E alone 200 g/ha) | Herbicidal effects Black Nightshade (black nightshade [9]; E alone 100 g/ha) | Herbicidal effects Black Nightshade (black nightshade [9]; E alone 200 g/ha) | Herbicidal effects Velvetleaf (velvetleaf [11]; E alone 100 g/ha) | Herbicidal effects Velvetleaf (velvetleaf [11]; E alone 200 g/ha)
0 (Growth inhibition rate; 0 to 9%): Crop injury against corn (corn [6]; E alone 50 g/ha) | Crop injury against corn (corn [6]; E alone 100 g/ha) | Crop injury against corn (corn [6]; E alone 200 g/ha) | Crop injury against corn (corn [12]; E alone 50 g/ha) | Crop injury against corn (corn [12]; E alone 100 g/ha) | Crop injury against corn (corn [12]; E alone 200 g/ha)
7 (Growth inhibition rate; 70 to 79%): Herbicidal effects Barnyard grass (barnyardgrass [2]; E alone 50 g/ha) | Herbicidal effects Black Nightshade (black nightshade [3]; E alone 50 g/ha) | Herbicidal effects Tall Morningglory (tall morningglory [4]; E alone 100 g/ha) | Herbicidal effects Velvetleaf (velvetleaf [5]; E alone 50 g/ha) | Herbicidal effects Velvetleaf (velvetleaf [5]; E alone 100 g/ha) | Herbicidal effects Cyperus esculentus (Cyperus esculentus L. [7]; E alone 100 g/ha) | Herbicidal effects Barnyard grass (barnyardgrass [8]; E alone 200 g/ha) | Herbicidal effects Tall Morningglory (tall morningglory [10]; E alone 100 g/ha)
9 (Growth inhibition rate; 90 to 98%): Herbicidal effects Barnyard grass (barnyardgrass [2]; E alone 100 g/ha) | Herbicidal effects Black Nightshade (black nightshade [3]; E alone 200 g/ha) | Herbicidal effects Black Nightshade (black nightshade [9]; E alone 50 g/ha) | Herbicidal effects Tall Morningglory (tall morningglory [10]; E alone 200 g/ha) | Herbicidal effects Velvetleaf (velvetleaf [11]; E alone 50 g/ha)
6 (Growth inhibition rate; 60 to 69%): Herbicidal effects Black Nightshade (black nightshade [3]; E alone 100 g/ha) | Herbicidal effects Tall Morningglory (tall morningglory [4]; E alone 50 g/ha) | Herbicidal effects Cyperus esculentus (Cyperus esculentus L. [7]; E alone 50 g/ha) | Herbicidal effects Tall Morningglory (tall morningglory [10]; E alone 50 g/ha)
8 (Growth inhibition rate; 80 to 89%): Herbicidal effects Cyperus esculentus (Cyperus esculentus L. [1]; E alone 50 g/ha) | Herbicidal effects Cyperus esculentus (Cyperus esculentus L. [1]; E alone 100 g/ha) | Herbicidal effects Cyperus esculentus (Cyperus esculentus L. [1]; E alone 200 g/ha) | Herbicidal effects Cyperus esculentus (Cyperus esculentus L. [7]; E alone 200 g/ha)
1 (Growth inhibition rate; 10 to 19%): Herbicidal effects Barnyard grass (barnyardgrass [8]; E alone 50 g/ha)
2 (Growth inhibition rate; 20 to 29%): Herbicidal effects Barnyard grass (barnyardgrass [8]; E alone 100 g/ha)

CS(=O)(=O)c1ccc(C(=O)C2C(=O)CCCC2=O)c([N+](=O)[O-])c1 [Compound F, 2-(4-mesyl-2-nitrobenzoyl)cyclohexan-1,3-dione]
2 (Growth inhibition rate; 20 to 29%): Herbicidal effects Tall Morningglory (tall morningglory [4]; F alone 25 g/ha) | Herbicidal effects Barnyard grass (barnyardgrass [8]; F alone 100 g/ha) | Herbicidal effects Tall Morningglory (tall morningglory [10]; F alone 25 g/ha)
6 (Growth inhibition rate; 60 to 69%): Herbicidal effects Black Nightshade (black nightshade [3]; F alone 25 g/ha) | Herbicidal effects Cyperus esculentus (Cyperus esculentus L. [7]; F alone 100 g/ha)
9 (Growth inhibition rate; 90 to 98%): Herbicidal effects Cyperus esculentus (Cyperus esculentus L. [1]; F alone 50 g/ha) | Herbicidal effects Cyperus esculentus (Cyperus esculentus L. [1]; F alone 100 g/ha) | Herbicidal effects Barnyard grass (barnyardgrass [2]; F alone 100 g/ha) | Herbicidal effects Velvetleaf (velvetleaf [5]; F alone 25 g/ha) | Herbicidal effects Black Nightshade (black nightshade [9]; F alone 100 g/ha) | Herbicidal effects Tall Morningglory (tall morningglory [10]; F alone 100 g/ha) | Herbicidal effects Velvetleaf (velvetleaf [11]; F alone 25 g/ha)
7 (Growth inhibition rate; 70 to 79%): Herbicidal effects Black Nightshade (black nightshade [9]; F alone 25 g/ha)
3 (Growth inhibition rate; 30 to 39%): Herbicidal effects Black Nightshade (black nightshade [3]; F alone 50 g/ha)
4 (Growth inhibition rate; 40 to 49%): Herbicidal effects Barnyard grass (barnyardgrass [2]; F alone 25 g/ha) | Herbicidal effects Cyperus esculentus (Cyperus esculentus L. [7]; F alone 25 g/ha)
8 (Growth inhibition rate; 80 to 89%): Herbicidal effects Cyperus esculentus (Cyperus esculentus L. [1]; F alone 25 g/ha) | Herbicidal effects Barnyard grass (barnyardgrass [2]; F alone 50 g/ha) | Herbicidal effects Black Nightshade (black nightshade [3]; F alone 100 g/ha) | Herbicidal effects Tall Morningglory (tall morningglory [4]; F alone 100 g/ha)
10 (Growth inhibition rate; 99 to 100%): Herbicidal effects Velvetleaf (velvetleaf [5]; F alone 50 g/ha) | Herbicidal effects Velvetleaf (velvetleaf [5]; F alone 100 g/ha) | Herbicidal effects Black Nightshade (black nightshade [9]; F alone 50 g/ha) | Herbicidal effects Velvetleaf (velvetleaf [11]; F alone 50 g/ha) | Herbicidal effects Velvetleaf (velvetleaf [11]; F alone 100 g/ha)
0 (Growth inhibition rate; 0 to 9%): Crop ijury against corn (corn [6]; F alone 25 g/ha) | Crop ijury against corn (corn [6]; F alone 50 g/ha) | Crop ijury against corn (corn [6]; F alone 100 g/ha) | Herbicidal effects Barnyard grass (barnyardgrass [8]; F alone 25 g/ha) | Herbicidal effects Barnyard grass (barnyardgrass [8]; F alone 50 g/ha) | Crop injury against corn (corn [12]; F alone 25 g/ha) | Crop injury against corn (corn [12]; F alone 50 g/ha) | Crop injury against corn (corn [12]; F alone 100 g/ha)
5 (Growth inhibition rate; 50 to 59%): Herbicidal effects Tall Morningglory (tall morningglory [4]; F alone 50 g/ha) | Herbicidal effects Cyperus esculentus (Cyperus esculentus L. [7]; F alone 50 g/ha) | Herbicidal effects Tall Morningglory (tall morningglory [10]; F alone 50 g/ha)

Oc1cc(Cl)nnc1Oc1c(F)cccc1C1CC1 [Example 236]
3 (Growth inhibition rate; 51 to 70%): Herbicidal effects Barnyard grass ([14]; chemical dosage 10 g/a) | Herbicidal effects Barnyard-grass (barnyardgrass [16]) | Herbicidal effects indian mustard (indian mustard) | Herbicidal effects Redroot pigweed (redroot pigweed)
0 (Growth inhibition rate; 0 to 10%): Crop injury against transplanted rice ([15]; chemical dosage 10 g/a) | Crop injury against transplanted rice ([15]; chemical dosage 20 g/a)
4 (Growth inhibition rate; 71 to 90%): Herbicidal effects Barnyard grass ([14]; chemical dosage 20 g/a) | Herbicidal effects Tall Morningglory (tall morningglory [18])
5 (Growth inhibition rate; 91 to 100%): Herbicidal effects Cyperus serotinus (Cyperus serotinus; chemical dosage 10 g/a) | Herbicidal effects Cyperus serotinus (Cyperus serotinus; chemical dosage 20 g/a) | Herbicidal effects Scirpus joncoides (Scirpus joncoides; chemical dosage 10 g/a) | Herbicidal effects Scirpus joncoides (Scirpus joncoides; chemical dosage 20 g/a) | Herbicidal effects Broad leaf ([13]; chemical dosage 10 g/a) | Herbicidal effects Broad leaf ([13]; chemical dosage 20 g/a) | Herbicidal effects indian mustard [17]
